# Assay results taken from US11136311B2, “Heteroaromatic derivatives as NIK inhibitors” (Janssen Pharmaceutica NV, priority 2016, dated 2021).
# Legend:
# KMS12-BM cells = assay: Antiproliferative activity on KMS12-BM (NIK WT) multiple myeloma cells (CellTiter-Glo); type: cell-based, human; conditions: Homo sapiens, KMS-12-BM, 96 h, KMS12-BM (NIK WT) cells, 96 hr; averaged values; read-out: KMS-12 Proliferation inhibition (IC50 (nM))
# In short: (§1)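 Viability was read by CellTiter-Glo after 96 hr compound exposure (9-point, 1:3 serial dilutions; 0.3% DMSO final). JJN-3 and KMS12-BM cells were seeded at 15000 and 20000 per well respectively in RPMI 1640/10% FCS; blank-subtracted signals were given as percent of drug-free controls.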
# [1] = target: recombinant human NF-kappaB-inducing kinase (NIK/MAP3K14) (Homo sapiens (Human), UniProt Q99558); assay: Inhibition of auto-phosphorylation of recombinant human NIK/MAP3K14 activity (AlphaScreen); type: biochemical; conditions: averaged values over all measurements on all batches
# In short: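 AlphaScreen read-out, using anti-phospho-IKK Ser176/180 antibody, tracked NIK autophosphorylation after 1 h at 25° C. Reactions held 0.2 nM GST-NIK, 25 microM ATP and compound in 1% DMSO, Tris pH 7.5 buffer. IC50 fitted sigmoidally to blank-subtracted inhibition data.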
# [2] = system: P-IKKα levels in L363 cells; assay: Effect of compounds on P-IKKα levels in L363 (NIK translocated multiple myeloma) cells; type: cell-based, human; conditions: Homo sapiens, L-363, L363 cells; averaged values; read-out: Inhibition of pIKKα_L-363 (IC50 (nM))
# Protocol: Effect of compounds on P-IKKα levels in L363 (NIK translocated multiple myeloma) cells
# All compounds tested were dissolved in DMSO and further dilutions were made in culture medium. Final DMSO concentration was 1% (v/v) in cell assays. The human L363 cells (ATCC) were cultured in RPMI 1640 medium supplemented with GlutaMax and 10% fetal calf serum (PAA). Cells were routinely maintained at densities of 0.2×10^6 cells per ml-1×10^6 cells per ml at 37° C. in a humidified 5% CO2 atmosphere. Cells were passaged twice a week splitting back to obtain the low density. Cells were seeded in 96 well plates (Nunc 167008) at 2×10^6 per ml media in a volume of 75 μl per well plus 25 μl 1 μg/ml recombinant human B-cell activating factor (BAFF/BLyS/TNFSF13B). Seeded cells were incubated at 37° C. in a humidified 5% CO2 atmosphere for 24 hr. Drugs and/or solvents were added (20 μl) to a final volume of 120 μl. Following 2 hr treatment plates were removed from the incubator and cell lysis was achieved by the addition of 30 μl 5× lysis buffer followed by shaking on a plate shaker at 4° C. for 10 min. At the end of this incubation lysed cells were centrifuged at 800×g for 20 min at 4° C. and the lysate was assessed for P-IKKα levels by sandwich immuno-assay carried out in anti-rabbit antibody coated Mesoscale plates. Within an experiment, the results for each treatment were the mean of 2 replicate wells. For initial screening purposes, compounds were tested using an 8 point dilution curve (serial 1:3 dilutions). For each experiment, controls (containing MG132 and BAFF but no test drug) and a blank incubation (containing MG132 and BAFF and 10 μM ADS125117, a test concentration known to give full inhibition) were run in parallel. The blank incubation value was subtracted from all control and sample values. To determine the IC50 a sigmoidal curve was fitted to the plot of % inhibition of control P-IKKα levels versus Log10 compound concentration.
# JJN-3 cells = assay: Antiproliferative activity on JJN-3 (NIK translocated) multiple myeloma cells (CellTiter-Glo); type: cell-based, human; conditions: Homo sapiens, JJN-3, 96 h, JJN-3 (NIK translocated) cells, 96 hr; averaged values; read-out: JJN-3 Proliferation inhibition (IC50 (nM))
# In short: as §1
# Sequence of recombinant human NF-kappaB-inducing kinase (NIK/MAP3K14) (Q99558 whole entry): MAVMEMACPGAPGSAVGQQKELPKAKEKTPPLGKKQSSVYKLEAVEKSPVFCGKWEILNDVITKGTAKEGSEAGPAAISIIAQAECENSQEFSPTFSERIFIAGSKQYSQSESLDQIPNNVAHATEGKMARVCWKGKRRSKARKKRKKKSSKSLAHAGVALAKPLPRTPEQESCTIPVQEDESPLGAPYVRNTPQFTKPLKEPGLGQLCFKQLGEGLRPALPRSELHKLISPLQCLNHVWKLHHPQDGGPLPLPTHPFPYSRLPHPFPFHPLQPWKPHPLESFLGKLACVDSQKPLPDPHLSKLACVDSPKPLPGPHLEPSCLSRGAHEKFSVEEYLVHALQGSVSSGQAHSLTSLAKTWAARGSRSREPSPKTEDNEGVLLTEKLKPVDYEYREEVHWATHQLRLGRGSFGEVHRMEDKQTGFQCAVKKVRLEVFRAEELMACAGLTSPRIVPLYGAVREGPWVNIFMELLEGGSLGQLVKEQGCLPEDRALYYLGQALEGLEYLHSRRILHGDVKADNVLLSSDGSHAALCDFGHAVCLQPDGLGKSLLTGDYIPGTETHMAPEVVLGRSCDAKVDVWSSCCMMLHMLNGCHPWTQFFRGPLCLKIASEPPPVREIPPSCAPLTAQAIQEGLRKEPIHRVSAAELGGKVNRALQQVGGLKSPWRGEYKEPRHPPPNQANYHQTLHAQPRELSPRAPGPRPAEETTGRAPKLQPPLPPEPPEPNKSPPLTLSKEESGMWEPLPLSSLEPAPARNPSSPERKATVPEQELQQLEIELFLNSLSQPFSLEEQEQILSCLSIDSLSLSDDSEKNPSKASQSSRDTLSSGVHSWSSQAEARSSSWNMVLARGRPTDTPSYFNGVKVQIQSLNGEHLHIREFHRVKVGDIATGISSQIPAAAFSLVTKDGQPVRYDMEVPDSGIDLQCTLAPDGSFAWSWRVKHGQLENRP
IC50 (KMS12-BM cells) [nM],IC50 [1] [nM],IC50 [2] [nM],IC50 (JJN-3 cells) [nM],Structure (SMILES)
> 10000,2,2,309,CC(C)Cc1nn(C)cc1Nc1nccc(-c2cc(C#N)c3c(c2)[C@@](C)(CO)CN3)n1 [Compound 97]
> 10000,2,5,1020,CC(C)Cc1c(Nc2nccc(-c3cc(C#N)c4c(c3)[C@@](C)(CO)CN4)n2)cnn1C [Compound 98]
9770,2.9,3,288,CC(C)CCc1c(Nc2nccc(-c3cc(C#N)c4c(c3)[C@@](C)(CO)CN4)n2)cnn1C [Compound 99]
> 10000,2.1,~15,54,CC(C)CCc1nn(C)cc1Nc1nccc(-c2cc(C#N)c3c(c2)[C@@](C)(CO)CN3)n1 [Compound 100]
5250,6,234,1510,CC(C)CCc1nn(CCN(C)C)cc1Nc1nccc(-c2cc(C#N)c3c(c2)[C@@](C)(CO)CN3)n1 [Compound 101]
3020,2.6,4,71,CNC(=O)c1cc(Nc2nccc(-c3cc(C#N)c4c(c3)[C@@](C)(CO)CN4)n2)nn1C(C)C [Compound 103]
> 10000,3.4,15,117,COCCCn1ncc(Nc2nccc(-c3cc(C#N)c4c(c3)[C@@](C)(CO)CN4)n2)c1CCC(C)C [Compound 104]
> 10000,5.5,20,447,COCCCn1cc(Nc2nccc(-c3cc(C#N)c4c(c3)[C@@](C)(CO)CN4)n2)c(CCC(C)C)n1 [Compound 105]
1350,3.8,9,55,CC(C)Cn1nc(Cl)cc1Nc1nccc(-c2cc(C#N)c3c(c2)[C@@](C)(CO)CN3)n1 [Compound 107]
~3160,4.1,14,~724,Cc1cc(Nc2nccc(-c3cc(C#N)c4c(c3)[C@@](C)(CO)CN4)n2)n(CCC(C)(C)O)n1 [Compound 108]
468,3.6,11,50,Cc1cc(Nc2nccc(-c3cc(C#N)c4c(c3)[C@@](C)(CO)CN4)n2)nn1CCC(C)(C)O [Compound 109]
2040,3,4,138,CC(C)CCn1nc(CO)cc1Nc1nccc(-c2cc(C#N)c3c(c2)[C@@](C)(CO)CN3)n1 [Compound 110]
5130,9.3,~331,355,Cc1cc(Nc2nccc(-c3cc(C#N)c4c(c3)[C@@](C)(CO)CN4)n2)n(CC2(C)COC2)n1 [Compound 111]
8910,2.9,13,69,COCCCn1nc(Cl)cc1Nc1nccc(-c2cc(C#N)c3c(c2)[C@@](C)(CO)CN3)n1 [Compound 112]
3020,6.2,42,69,C[C@]1(CO)CNc2c(C#N)cc(-c3ccnc(Nc4cc(Cl)nn4C[C@@H]4CCCO4)n3)cc21 [Compound 113]
1070,6,30,151,C[C@]1(CO)CNc2c(C#N)cc(-c3ccnc(Nc4cc(Cl)nn4C[C@H]4CCCO4)n3)cc21 [Compound 114]
4270,4.6,10,62,C[C@]1(CO)CNc2c(C#N)cc(-c3ccnc(Nc4cc(Cl)nn4CCC4CC4)n3)cc21 [Compound 115]
> 10000,6,11,269,CC(C)CCc1c(Nc2nccc(-c3cc(C#N)c4c(c3)[C@@](C)(CO)CN4)n2)cnn1Cc1nccn1C [Compound 117]

IC50 (KMS12-BM cells) [nM],IC50 [1] [nM],IC50 [2] [nM],IC50 (JJN-3 cells) [nM],Structure (SMILES)
> 10000,4,33,447,CN(C(=O)Cn1nc(Cl)cc1Nc1nccc(-c2cc(C#N)c3c(c2)[C@@](C)(CO)CN3)n1)C1CC1 [Compound 118]
> 10000,9.6,43,3160,CC(C)Cn1nc(P(C)(C)=O)cc1Nc1nccc(-c2cc(C#N)c3c(c2)[C@@](C)(CO)CN3)n1 [Compound 119]
5010,~29,3,126,CC(C)CCc1c(Nc2nccc(-c3cc(C#N)c4c(c3)[C@@](C)(CO)CN4)n2)cnn1Cc1cncn1C [Compound 120]
> 10000,5,25,282,CC(C)CCc1c(Nc2nccc(-c3cc(C#N)c4c(c3)[C@@](C)(CO)CN4)n2)cnn1C[C@@H]1COCCO1 [Compound 121]
~1660,6.8,1020,479,Cc1nn(C2CCN(C)CC2)cc1Nc1nccc(-c2cc(C#N)c3c(c2)[C@@](C)(CO)CN3)n1 [Compound 122]
~447,1.6,20,195,Cc1c(Nc2nccc(-c3cc(C#N)c4c(c3)[C@@](C)(CO)CN4)n2)cnn1C1CCN(C)CC1 [Compound 123]
832,6.8,219,49,CN1CCC(Cn2nc(Cl)cc2Nc2nccc(-c3cc(C#N)c4c(c3)[C@@](C)(CO)CN4)n2)CC1 [Compound 124]
> 10000,3.5,1,120,CC(C)CCc1c(Nc2nccc(-c3cc(C#N)c4c(c3)[C@@](C)(CO)CN4)n2)cnn1CCN1CCOCC1 [Compound 125]
> 10000,4.8,170,468,C[C@]1(CO)CNc2c(C#N)cc(-c3ccnc(Nc4cc(Cl)nn4C[C@@H]4COCCO4)n3)cc21 [Compound 126]
> 10000,2,25,617,CC(C)CCc1c(Nc2nccc(-c3cc(C#N)c4c(c3)[C@@](C)(CO)CN4)n2)cnn1CCO [Compound 127]
1900,3.7,~41,417,C[C@]1(CO)CNc2c(C#N)cc(-c3ccnc(Nc4cc(C#N)nn4CCC4CC4)n3)cc21 [Compound 128]
2040,3.8,28,251,C[C@]1(CO)CNc2c(C#N)cc(-c3ccnc(Nc4cc(Cl)nn4C[C@@H]4CCOC4)n3)cc21 [Compound 129]
> 10000,6,115,1000,CC(C)CCc1nn(Cc2cncn2C)cc1Nc1nccc(-c2cc(C#N)c3c(c2)[C@@](C)(CO)CN3)n1 [Compound 130]
> 10000,5.9,166,224,Cc1cc(Nc2nccc(-c3cc(C#N)c4c(c3)[C@@](C)(CO)CN4)n2)n(CC2(F)CCN(C)CC2)n1 [Compound 131]
~1860,1,2,58,Cc1nn(CC(F)F)cc1Nc1nccc(-c2cc(C#N)c3c(c2)[C@@](C)(CO)CN3)n1 [Compound 132]
6610,6.9,65,389,C[C@]1(CO)CNc2c(C#N)cc(-c3ccnc(Nc4cc(Cl)nn4C[C@H]4COCCO4)n3)cc21 [Compound 133]
2240,4.8,107,47,C[C@]1(CO)CNc2c(C#N)cc(-c3ccnc(Nc4cc(Cl)nn4CC4CCN(CCF)CC4)n3)cc21 [Compound 134]
> 10000,5.1,229,> 10000,Cc1cc(Nc2nccc(-c3cc(C#N)c4c(c3)[C@@](C)(CO)CN4)n2)n(CC(=O)O)n1 [Compound 135]
